Molecules are shown by their SMILES. Where only a bound is given, the exact number is not on record here.

The text below walks through data of patent publication US9637490B2, “Antifungal 5,6-dihydro-4-[(difluoroethyl)phenyl]-4H-pyrrolo[1,2-α][1,4]benzodiazepine and 4-(difluoroethyl)phenyl-6H-pyrrolo[1,2-α][1,4]benzodiazepine derivatives” (Janssen Pharmaceutica NV, priority 2010, dated 2017).

Series [1] deals with Sporothrix schenkii B62482. The series can be described thus: Antifungal activity in vitro (resazurin susceptibility screen), Inf. A. It counts as cell-based. The note with it: Sporothrix, B62482, Sporothrix schenkii B62482; 27 °C, 4 days, resa time 24 hours. The method, boiled down: (§1)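 Each isolate, diluted 1/1000 from cryostock to give 10^3 cfu/well, is exposed to serially diluted compound (max 64 μM) in RPMI-1640 supplemented with glutamine and glucose, MOPS-buffered at pH 7.0. Plates incubate 24 h at 37° C (yeasts) up to ≥1 week at 27° C (dermatophytes), then resazurin fluorescence is scored.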
A general note: The colour change of resazurin is a common sign of viable cells or microbes.

For the next series, the system named is Microsporum canis B68128. The series can be described thus: Antifungal activity in vitro (resazurin susceptibility screen), Inf. B. It is filed as cell-based. The note with it: Microsporum canis, B68128, Microsporum canis B68128; 27 °C, 9 days, resa time 24 hours. The method, boiled down: as §1
The test system of series [2] is Trichophyton rubrum B68183. Briefly: Antifungal activity in vitro (resazurin susceptibility screen), Inf. C. It counts as cell-based. The note with it: Trichophyton rubrum, B68183, Trichophyton rubrum B68183; 27 °C, 7 days, resa time 24 hours. In outline: as §1
For series [3], the system named is Candida parapsilosis B66126. Briefly: Antifungal activity in vitro (resazurin susceptibility screen), Inf. D. It counts as cell-based. The settings on record: Lodderomyces parapsilosis, B66126, Candida parapsilosis B66126; 37 °C, 24 hours, resa time 4 hours. In outline:
as §1

The subject of series [4] is Aspergillus fumigatus B42928. Briefly: Antifungal activity in vitro (resazurin susceptibility screen), Inf. E. It is filed as cell-based. The settings on record: Aspergillus fumigatus, B42928, Aspergillus fumigatus B42928; 27 °C, 48 hours, resa time 17 hours. In outline:
as §1

The test system of series [5] is Cryptococcus neoformans B66663. The series can be described thus: Antifungal activity in vitro (resazurin susceptibility screen), Inf. F. It is filed as cell-based. The note with it: Cryptococcus neoformans, B66663, Cryptococcus neoformans B66663; 37 °C, 24 hours, resa time 4 hours. In outline: as §1
Series [6] deals with Trichophyton mentagrophytes B70554. The series can be described thus: Antifungal activity in vitro (resazurin susceptibility screen), Inf. G. It is filed as cell-based. The settings on record: Trichophyton mentagrophytes, B70554, Trichophyton mentagrophytes B70554; 27 °C, 7 days, resa time 24 hours. The method, boiled down: as §1
The subject of series [7] is Scedosporium apiospermum IHEM3817. The series can be described thus: Antifungal activity in vitro (resazurin susceptibility screen), Inf. H. It is filed as cell-based. The note with it: Scedosporium apiospermum, IHEM3817, Scedosporium apiospermum IHEM3817; 37 °C, 48 hours, resa time 17 hours. The method, boiled down: as §1
For series [8], the system named is Scedosporium prolificans IHEM21157. Briefly: Antifungal activity in vitro (resazurin susceptibility screen), Inf. I. It counts as cell-based. The note with it: Lomentospora prolificans, 37 °C, 48 hours, resa time 17 hours. The method, boiled down:
as §1

Another series deals with Rhizopus oryzae IHEM5223. The series can be described thus: Antifungal activity in vitro (resazurin susceptibility screen), Inf. J. It counts as cell-based. The note with it: Rhizopus arrhizus, 37 °C, 24 hours, resa time 6 hours. In outline: as §1
Series [9] deals with Rhizomucor miehei IHEM13391. Briefly: Antifungal activity in vitro (resazurin susceptibility screen), Inf. K. It is filed as cell-based. The settings on record: Rhizomucor miehei, IHEM13391, Rhizomucor miehei IHEM13391; 37 °C, 48 hours, resa time 17 hours. In outline:
as §1

Series [10] has as its system Mucor circinelloides IHEM21105. Briefly: Antifungal activity in vitro (resazurin susceptibility screen), Inf. L. It is filed as cell-based. The note with it: 27 °C, 48 hours, resa time 17 hours. The method, boiled down: as §1

Usually IC50 stands for the midpoint of a concentration-inhibition curve. Read a low IC50 as inhibition by little substance. The term melting point denotes the temperature of the solid-liquid transition. In the case of `CC(F)(F)c1ccc(C2=NCc3cccc(Cl)c3-n3cccc32)cc1` [Compound 19, 10-chloro-4-[4-(1,1-difluoroethyl)phenyl]-6H-pyrrolo[1,2-a][1,4]benzodiazepine], the melting point was 247.5 °C (dec.). Besides, 2820 nM corresponded to half-maximal inhibition in series [1] (IC50). The IC50 in the series on Microsporum canis B68128 is 2040 nM. The compound further showed an IC50 in series [2] of 214 nM. Also, the IC50 in [3] was 13200 nM. In series [4], half-maximal inhibition (IC50) required 2040 nM. Besides, the midpoint of inhibition in series [5], the IC50, lay at 1620 nM. This compound also gave an IC50 in series [6] of 646 nM. Besides, in [7], the midpoint of inhibition, the IC50, lay at 2340 nM. This compound also gave an IC50 in [8] of 513 nM. The same compound had a 50% inhibitory concentration (IC50) in the series on Rhizopus oryzae IHEM5223 of 9770 nM. For the same compound, the IC50 in series [9] was 14500 nM. The same compound gave an IC50 in [10] greater than 64600 nM.
